# In US20230391868A1, “COMPOSITIONS FOR AND METHODS OF TREATING CANCER” (The George Washington University, priority 2022, published 2023):
# What was measured:
# primary mouse BMDMs = assay: Pro-phagocytic signal gene expression in BMDMs; assay type: cell-based
# Description: Bone marrow-derived macrophages were isolated from the femurs and tibias of wild-type C57/Bl6, HDAC6 knockout (C57BL/6J-Hdac6em2Lutzy/J, 029318, Jackson Laboratory), or UBC-GFP (C57BL/6-Tg(UBC-GFP)30Scha/J, 004353, Jackson Laboratory). Isolated bone marrow cells were cultured in RPMI 1640 complete medium with 10% FBS, 1% NEAA, and 1% penicillin-streptomycin in 5% CO2 at 37° C. Medium was supplemented with murine recombinant M-CSF (20 ng/mL, 576404, Biolegend) to differentiate monocytes into macrophages. Three days after bone marrow isolation, undifferentiated and floating cells were washed with PBS and replaced with fresh RPMI media. A3.1A7 cells and BMDMs were pretreated with 5 μM of HDAC6 inhibitor NextA or vehicle prior to adding polarizing cytokines.
# qRT-PCR: Total RNA was extracted from cells using the Trizol reagent according to manufacturer's instructions (ThermoFisher Scientific, 15596018). Samples were then processed immediately or stored at −80° C. RNA was quantified using a NanoDrop One Spectrophotometer (ThermoFisher Scientific). The 260/280 ratios were routinely over 1.8. […] Target mRNA was quantified using MyIQ single-color real-time PCR detection system from Bio-Rad (Bio-Rad, Hercules, CA) and iQ SYBR green Supermix (Bio-Rad, 1708882). […] Quantification is expressed in arbitrary units and target mRNA levels were normalized to R-actin expression.
# SM1 melanoma cells = assay: Flow cytometry-based phagocytosis assay, BMDMs co-cultured with SM1 cells; assay type: cell-based, mouse; details: NextA treated vs untreated macrophages (FIG. 4)
# Description: To evaluate phagocytosis by flow cytometry, SM1 melanoma cells were co-cultured with A3.1A7 cells or BMDMs derived from wild-type C57/Bl6 mice at a 2:1 ratio for 2 hr. or 4 hr. in serum-free media. Twenty-four (24) hours prior to co-culture, macrophages were polarized to their respective phenotypes as previously described in the presence or absence of NextA, and melanoma cells were untreated or treated with NextA. On the day of the co-culture, melanoma cells were stained with 1 μM of CellTrace™ CFSE Cell Proliferation Kit (ThermoFisher, C34554) and were washed extensively to remove excess dye. Phagocytosis assays were carried out in the presence of anti-mouse CD47 (clone miap301, 127502, Biolegend, San Diego, CA) and its respective isotype control (IgG, 400502, Biolegend), or anti human CD47 (clone CC2C6, 323102, Biolegend) or isotype control (MOPC-21, BE0083, Biolegend) at 25 μg/mL. Co-culture was set up in non-cell culture treated 96 U-well plates. […]
# Flow cytometry data was acquired a BD FACS Celesta Cell Analyzer, and data analysis was performed with FlowJo software version 10.3. Phagocytosis was determined as the percentage of CFSE+F4/80+ or CFSE+ CD11b+ cells out of total F4/80+ or total CD11b+ cells. […]
# SIRPα = SIRPα expression on NK cells; assay type: cell-based
structure (smiles),measurement,setting,value
"CCCCN(Cc1ccc(C(=O)NO)cc1)C(=O)Nc1ccccc1 [NextA, Nexturastat A]","expression of Lrp1, Cd36, and Mfge8",primary mouse BMDMs,significant increase
same,phagocytic capacity of macrophages,SM1 melanoma cells,enhanced the phagocytic capacity
same,SIRPα expression on NK cells,SIRPα,downregulated
